Experiments:
[1] = test system: purified T cells from C57BL/6 mice stimulated with bone marrow-derived BALB/c DCs; test: Allogeneic T cell proliferation assay (3H-thymidine incorporation, IFN-γ ELISA); type: cell-based, mouse; details: for alloreactive T cell proliferation compared to media alone: WT BALB/c DCs + C57BL/6 T cells, 72 h then 3H-thymidine 16 h, HS 100 μg/mL, HSP70 5 μg/mL, C12-iE-DAP 1 μg/mL, L18-MDP 1 μg/mL
Experimental: Cells were co-cultured either alone (media) or in the presence of LPS (100 ng/mL), Pam3CSK4 (2 μg/mL), hyaluronan (HA) (100 μg/mL), sonicated-HA (sHA) (100 μg/mL), fibronectin (FN) (100 μg/mL), fibrinogen (Fbn) (100 μg/mL), heparan sulfate (HS) (100 μg/mL), HSP70 (5 μg/mL), HMGB1 (1 μg/mL), C12-iE-DAP (1 μg/mL), or L18-MDP (1 μg/mL) for 72 hours, and then pulsed ^3H-thymidine for 16 hours. Proliferation was determined by ^3H incorporation and results are expressed as cpm±SEM. Baseline alloreactivity is indicated by the dotted line; *p<0.05 compared with media alone. […] Results are representative of three independent experiments.
T cell proliferation assay: DCs were generated from bone marrow as previously described. (Yang, Y. (2004) Nat. Immunol. 5:508-15). CD3^+ T cells were isolated from B6 mice using a CD3 negative selection magnetic bead kit (Invitrogen, Carlsbad, United States). Proliferation assays were performed as previously described. (Brennan, T. V. et al. (2008) Transplantation 85:247-55).
Purified T cells from C57BL/6 mice were stimulated with bone marrow-derived DCs from BALB/c mice and their proliferation was measured by the incorporation of ^3H-thymidine. DAMPs tested included proteins—fibronectin (FN), fibrinogen (Fbn), heat shock protein 70 (HSP70), and high-mobility group protein B1 (HMGB1); and glucosaminoglycans—heparan sulfate (HS) and hyaluronan (HA). For comparison, two well-described PAMPs, lipopolysaccharide (LPS) and a synthetic tripalmitoylated lipopeptide (Pam3CSK4) that are ligands of the TLR4 homodimer and the TLR1/2 heterodimer, respectively, were tested. As nucleotide-binding domain, leucine-rich repeat containing receptors (NLRB) are another family of innate immune receptors, ligands of NLR1 (C12-iE-DAP) and NLR2 (L18-MDP) were further tested.
Next, to investigate whether HS enhanced proliferation of allogeneic T cells was due to the stimulation of TLRs on DCs or T cells, because MyD88 is a common adaptor protein involved in the signal transduction of all TLRs with the exception of TLR3^9, HS was tested against DCs or T cells that were deficient for MyD88. For this purpose, T cells from WT or MyD88^−/− C57BL/6 mice were stimulated with DCs from WT or MyD88^−/− BALB/c mice in an allogeneic proliferation assay in the presence of HS, LPS, Pam3CSK4, or media alone.
HS has been shown as a TLR4 ligand, (Johnson, G. B. et al., (2002) J. Immunol. 168:5233-39; Johnson, G. B., Brunn, G. J. & Platt, J. L. (2004) J. Immunol. 172:20-24). To determine whether the absence of TLR4 expression on stimulating DCs would reduce HS-induced alloreactive T cell proliferation equivalent to MyD88 deficiency, purified T cells from C57BL/6 mice were co-cultured with irradiated WT, TLR4^−/−, and MyD88^−/− BALB/c DCs and proliferation was measured by the incorporation of ^3H-thymidine.
Cytokine analysis: Cell culture supernatants were obtained from DC cultures or T cell proliferation assays and assayed for IL-6, IL-12 and IFN-γ by ELISA (BD Biosciences) according to the manufacturer's standard protocols. HEK 293 supernatants were tested for human IL-8 by ELISA (BioLegend, San Diego, United States).
Allogenic heart transplants were performed between C57BL/6 donors and (BALB/c x DBA.1)F1 recipients. Serum HS was measured by ELISA Immunohistologic staining for HS and CD3 was performed on heart tx tissue. Bone marrow derived dendritic cells (DCs) and purified T cells from WT-, MyD88- or TLR4-deficient mice were used in MLR assays to test for proliferation and cytokine production in response to HS. CD40 and CD80 expression on stimulated DCs was measured by FACS. T cell proliferation was determined by ^3H-thymidine incorporation and CFSE dye dilution assay. HEK293 NF-kB-luciferase reporter cell lines stably expressing CD14, MD2, and TLR4 or TLR2 were used in assays of HS activity.

[2] = test system: BALB/c recipients of B10.D2 Allo-BM+LC (GVHD); test: Murine Allo-HSCT model of GVHD (B10.D2→BALB/c); type: in vivo, mouse
Experimental: BALB/c recipient of B10.D2 Allo-BM+LC were treated with subcutaneous injections of the HS mimetic, PG545 (20 mg/kg in PBS), or PBS control once weekly, beginning 1 day prior to Allo-HSCT. […] FIG. 9C is a graph showing survival analysis of Allo-BM+LC+PG545 (n=10) compared to Allo-BM+LC+PBS (n=10).
Antibodies and flow cytometry: Anti-CD40 (HM40-3), anti-CD80 (16-10A1), anti-Thy1.1 (OX-7), anti-Ly5.1 (A20) anti-IFN-γ (XMG1.2), rat IgG1 isotype (R3-34), and the BrdU Flow Kit (FITC-labeled) were from BD Biosciences (San Jose, Calif., USA). Intracellular IFN-γ staining was performed as previously described. […] For in vivo BrdU labeling, mice were injected with 50 μg BrdU/gm i.p. 1 hour prior to analysis. Collection of flow cytometric data was acquired using a FACSCanto (BD Biosciences), and events were analyzed using FloJo software (Tree Star, Inc., Ashland, United States). […]
Allo-HSCT: For Allo-HSCT, wild-type (WT) and TLR4−/− BALB/c mice received myeloablative total-body irradiation (8.5 Gy) followed by intravenous infusion of 1×10^7 B10.D2 or BALB/c T-cell depleted bone marrow (TCD-BM). […] To induce GVHD, 5×10^6 lymph node cells from inguinal, axillary, cervical and mesenteric lymph nodes of B10.D2 or BALB/c mice were injected intravenously in addition to TCD-BM.
(§1) In another model of acute GVHD, 5×10^6 lymph node cells and 1×10^7 TCD BM from C3H.SW were transferred to C57BL/6 recipients irradiated with 10 Gy. HSCT recipients of these two GVHD models then received either intraperitoneal (i.p.) injections of 2 mg of al-antitrypsin (A1AT, Aralast™, Baxter, Deerfield, United States) resuspended in 200 μL sterile phosphate-buffered saline (PBS), subcutaneous (s.c.) injections of 20 mg/kg PG545 (Progen Pharmaceuticals Limited, Queensland, Australia) in 200 μL PBS, or 200 μL PBS alone at the indicated intervals.
In this model, lethally irradiated BALB/c mice were transplanted with 1×10^7 T cell-depleted bone marrow (TCD-BM) and 5×10^6 lymphocytes (LCs) from B10.D2 mice (Allo-BM+LC). Control mice received B10.D2 TCD-BM only (Allo-BM only) or syngeneic BALB/c TCD-BM and 5×10^6 BALB/c LCs (Syn-BM+LC).

[3] = test system: C57BL/6 recipients of C3H.SW TCD-BM and LCs (GVHD); test: Second GVHD model (C3H.SW→C57BL/6); type: in vivo, mouse; details: A1AT 2 mg i.p. every 3 days; p=0.032
Experimental: FIG. 7A is a graph showing serum HS concentrations at the indicated time points following Allo-HSCT (B10.D2→BALB/c; 1×10^7 B10.D2 TCD-BM and 5×10^6 B10.D2 LC) treated with A1AT (2 mg) or PBS every 3 days by i.p. injection, starting 1 day prior to transplantation; n=3 per data point, as determined by ELISA assay; *p<0.05. FIG. 7B is a graph showing survival and FIG. 7C is a graph showing GVHD clinical score of Allo-BM only (n=5) or Allo-BM+LC treated with A1AT (n=8) or PBS (n=5). Data is from one of two independent experiments with identical results. […] Survival of BALB/c recipients of Allo-BM+LC from B10.D2 donors (n=11) and TLR4^−/− BALB/c recipients of Allo-BM+LC from B10.D2 donors administered A1AT (n=8) or PBS (n=14) every 3 days by intraperitoneal injection, starting 1 day prior to transplantation.
as §1, with “intervals. […]” for “intervals.”

BALB/c DCs = test: DC maturation: surface expression of CD40 and CD80 by FACS; type: cell-based, mouse; details: 24 h; HS 100 μg/mL, Pam3CSK4 2 μg/mL
Experimental: FIG. 3A is a graph showing WT, TLR4^−/−, or MyD88^−/− BALB/c DCs (2×10^5/well) were stimulated with LPS (100 ng/mL), HS (100 μg/mL), or Pam3CSK4 (2 μg/mL), or left unstimulated (media) for 24 hours, and measured for surface expression of co-stimulatory molecules CD40 and CD80 by FACS analysis. FIGS. 3B and 3C are graphs showing WT, MyD88^−/−, and TLR4^−/− BALB/c cultured DCs were co-cultured with media alone, LPS, HS, or Pam3CSK4 as in (A) and culture supernatants were tested for IL-6 (B) and IL-12 (C) by ELISA. Data are representative of three independent experiments; *p<0.05 compared with media alone.
To investigate how activation of DCs by HS promoted the alloreactive T cell response, an as DC maturation and production of pro-inflammatory cytokines are key initial events in triggering adaptive immune responses, the ability of HS to upregulate DC expression of costimulatory molecules, CD40 and CD80, and pro-inflammatory cytokines, IL-6 and IL-12 was tested.
Antibodies and flow cytometry: Anti-CD40 (HM40-3), anti-CD80 (16-10A1), anti-Thy1.1 (OX-7), anti-Ly5.1 (A20) anti-IFN-γ (XMG1.2), rat IgG1 isotype (R3-34), and the BrdU Flow Kit (FITC-labeled) were from BD Biosciences (San Jose, Calif., USA). Intracellular IFN-γ staining was performed as previously described. (Brennan, T. V. et al. (2008) Transplantation 85:247-55). For in vivo BrdU labeling, mice were injected with 50 μg BrdU/gm i.p. 1 hour prior to analysis. Collection of flow cytometric data was acquired using a FACSCanto (BD Biosciences), and events were analyzed using FloJo software (Tree Star, Inc., Ashland, United States).

[4] = splenocytes six days after transplantation, vs PBS

Compound: CCCCCCCCCCCC(=O)N[C@H](CCC(=O)NC(CCCC(N)C(=O)O)C(=O)O)C(=O)O (some centres unmarked) [C12-iE-DAP, reference compound]
- alloreactive T cell proliferation compared to media alone [1]: Neither of the NLR ligands tested produced a significant increase

Compound: CC(C)CCC[C@@H](C)[C@H]1CC[C@H]2[C@@H]3CC[C@H]4C[C@@H](O[C@@H]5O[C@H](COS(=O)(=O)O)[C@@H](O[C@H]6O[C@H](COS(=O)(=O)O)[C@@H](O[C@H]7O[C@H](COS(=O)(=O)O)[C@@H](O[C@H]8O[C@H](COS(=O)(=O)O)[C@@H](OS(=O)(=O)O)[C@H](OS(=O)(=O)O)[C@H]8OS(=O)(=O)O)[C@H](OS(=O)(=O)O)[C@H]7OS(=O)(=O)O)[C@H](OS(=O)(=O)O)[C@H]6OS(=O)(=O)O)[C@H](OS(=O)(=O)O)[C@H]5OS(=O)(=O)O)CC[C@]4(C)[C@H]3CC[C@]12C [PG545, reference compound]
- post-transplant serum HS levels compared to PBS ([2]; PG545 20 mg/kg s.c. once per week from one day prior to transplant): higher
- rate of GVHD (survival analysis) ([2]; PG545 20 mg/kg s.c. weekly, PBS 29, p<0.001): 21 days
- percentage of proliferating donor CD8 T cells (BrdU uptake) ([2]; post-transplant day 6, PG545 20 mg/kg s.c. weekly, PBS 12.9±2.0, n=3, p<0.05): 23.2±2.3

Compound: A1AT: α1-antitrypsin (Aralast, Baxter), serum serine protease inhibitor
- survival compared with PBS treated group [3]: significant survival benefit
- GVHD pathology scores (ear skin) ([2]; 3 weeks post-transplant, vs PBS): significantly lower
- survival (MST) ([2]; A1AT 2 mg i.p. every 3 days, PBS controls 28.0, p<0.001): 48.5 days
- GVHD clinical score curve ([2]; Allo-BM+LC recipients, 10-point scale, p=0.03): significantly lower
- survival in TLR4−/− recipients compared to PBS treated TLR4−/− mice ([2]; TLR4−/− BALB/c recipients of B10.D2 Allo-BM+LC, p=0.30): no further survival benefit
- serum HS levels compared to PBS ([2]; days 9 and 14 following HSCT, A1AT 2 mg i.p. every 3 days from 1 day prior to transplant): significantly lower
- BrdU incorporation by donor Thy1.1+ T cells [2, 4]: significantly reduced
- IFN-γ production by donor Thy1.1+ T cells [2, 4]: significantly reduced

Compound: HSP70: heat shock protein 70 (Assay Designs), a DAMP [reference compound]
- alloreactive T cell proliferation compared to media alone [1]: significantly increased

Compound: Pam3CSK4 [reference compound]
- upregulation of CD40 and CD80 on MyD88−/− DCs (BALB/c DCs): but not on MyD88^−/− DCs
- upregulation of CD40 and CD80 on TLR4−/− DCs (BALB/c DCs): able to upregulate
- upregulation of CD40 and CD80 on WT DCs (BALB/c DCs): able to upregulate

Compound: polymyxin B [PMB, reference compound]
- effect on LPS-induced proliferation ([1]; PMB 10 ug/mL, LPS 100 ng/mL): significant decrease

From patent US20160109459A1, “Compositions And Methods For Heparan Sulfate As A Biomarker For Transplant Rejection” (Duke University, priority 2012, published 2016)
